The values that follow come from patent US20200131132A1, “FARNESOID X RECEPTOR AGONISTS AND USES THEREOF” (Metacrine, Inc., priority 2017, published 2020).

pEC50: −log10 of the molar value. Some results are limits rather than exact numbers.

For orientation: pEC50 means the EC50 on a negative log10 scale, so that one unit is a factor of ten.

This test addresses T1, hFXR (Homo sapiens, UniProt Q96RI1).
T1 construct: expressed in transfected cells; host or cells: CV-1 cells
T1 sequence (Q96RI1 1-486): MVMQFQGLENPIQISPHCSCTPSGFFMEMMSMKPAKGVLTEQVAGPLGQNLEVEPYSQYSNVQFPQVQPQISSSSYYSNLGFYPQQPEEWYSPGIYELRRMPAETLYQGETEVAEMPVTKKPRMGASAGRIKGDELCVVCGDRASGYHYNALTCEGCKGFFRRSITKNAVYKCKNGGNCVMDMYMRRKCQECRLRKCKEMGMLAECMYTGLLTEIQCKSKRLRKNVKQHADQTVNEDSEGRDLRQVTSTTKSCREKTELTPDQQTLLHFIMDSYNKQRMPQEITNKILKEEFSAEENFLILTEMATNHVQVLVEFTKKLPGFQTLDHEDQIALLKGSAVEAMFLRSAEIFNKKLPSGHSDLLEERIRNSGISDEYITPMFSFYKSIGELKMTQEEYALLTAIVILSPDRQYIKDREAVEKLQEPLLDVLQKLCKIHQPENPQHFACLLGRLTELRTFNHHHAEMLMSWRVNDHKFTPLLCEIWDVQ
T1 sequence (P19793 1-462 partner): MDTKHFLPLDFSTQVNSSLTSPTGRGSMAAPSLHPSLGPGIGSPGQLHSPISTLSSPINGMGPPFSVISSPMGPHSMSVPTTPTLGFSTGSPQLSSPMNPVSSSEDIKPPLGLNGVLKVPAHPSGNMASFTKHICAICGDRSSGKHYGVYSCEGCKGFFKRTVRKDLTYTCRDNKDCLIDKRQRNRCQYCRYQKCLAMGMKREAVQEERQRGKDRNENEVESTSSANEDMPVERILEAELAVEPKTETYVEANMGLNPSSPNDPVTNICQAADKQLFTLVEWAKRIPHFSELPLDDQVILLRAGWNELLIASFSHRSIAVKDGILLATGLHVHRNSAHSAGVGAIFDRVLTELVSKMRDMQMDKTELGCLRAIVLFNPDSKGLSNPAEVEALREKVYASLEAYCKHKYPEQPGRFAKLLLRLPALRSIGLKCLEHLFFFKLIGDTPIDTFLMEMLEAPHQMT
The test is described as follows: In Vitro FXR Assay (TK). It is filed as cell-based. The settings on record: CV-1 cells transfected with hFXR, hRXR, TK-ECRE-luc and pCMX-YFP; compounds incubated 18 hrs; luminescence. Summed up: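 Reporter transactivation by hFXR was measured in CV-1 cells carrying hRXR and a TK-ECRE-luc construct, with compound treatment for 18 h before lysis and luminescence detection.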
For `COc1ccc(-c2ccc(CN(C(=O)CC(C)(C)C)c3nccc4cc(OC5CCC(O)C5)ccc34)cc2)cc1C` (stereo not shown) [Compound 10.02, N-(6-((3-Hydroxycyclopentyl)oxy)iso-quinolin-1-yl)-N-((4′-methoxy-3′-methyl-[1,1′-biphenyl]-4-yl)methyl)-3,3-dimethylbutanamide], the pEC50 is at least 6.00.
As for `COc1ccc(-c2ccc(CN(C(=O)CC(C)(C)C)c3nccc4cc(OC5CN(C(=O)OC(C)(C)C)C5)ccc34)cc2)cc1C` [Compound 8.07, tert-Butyl 3-((1-(N-((4′-methoxy-3′-methyl-[1,1′-biphenyl]-4-yl)methyl)-3,3-dimethylbutanamido)isoquinolin-6-yl)oxy)azetidine-1-carboxylate], the figure is under 5.00; as for `CCCOc1ccc2c(N(Cc3ccc(-c4ccc(OC)c(C)c4)cc3)C(=O)CC(C)(C)C)nccc2c1` [Compound 11.02, N-((4′-Methoxy-3′-methyl-[1,1′-biphenyl]-4-yl)methyl)-3,3-dimethyl-N-(6-propoxyisoquinolin-1-yl)butanamide], at least 6.00; as for `COCCOc1ccc2c(N(Cc3ccc(-c4ccc(OC)c(C)c4)cc3)C(=O)CC(C)(C)C)nccc2c1` [Compound 9, N-((4′-Methoxy-3′-methyl-[1,1′-biphenyl]-4-yl)methyl)-N-(6-(2-methoxyethoxy)isoquinolin-1-yl)-3,3-dimethylbutanamide], at least 6.00.
As for `COc1ccc(-c2ccc(CN(C(=O)CC(C)(C)C)c3nccc4cc(OCCC(C)O)ccc34)cc2)cc1C` (stereo not shown) [Compound 10.03, N-(6-(3-Hydroxybutoxy)isoquinolin-1-yl)-N-((4′-methoxy-3′-methyl-[1,1′-biphenyl]-4-yl)methyl)-3,3-dimethylbutanamide], the figure is at least 6.00; as for `COc1ccc(-c2ccc(CN(C(=O)CC(C)(C)C)c3nccc4cc(CCCO)ccc34)cc2)cc1C` [Compound 24, N-(6-(3-Hydroxypropyl)isoquinolin-1-yl)-N-((4′-methoxy-3′-methyl-[1,1′-biphenyl]-4-yl)methyl)-3,3-dimethylbutanamide], at least 6.00.
As for `COc1ccc(-c2ccc(CN(C(=O)CC(C)(C)C)c3nccc4cc(COCCO)ccc34)cc2)cc1C` [Compound 2.02, N-(6-((2-Hydroxyethoxy)methyl)isoquinolin-1-yl)-N-((4′-methoxy-3′-methyl-[1,1′-biphenyl]-4-yl)methyl)-3,3-dimethylbutanamide], the figure is at least 6.00.
Regarding `CNC(=O)c1ccc2c(N(Cc3ccc(-c4ccc(OC)c(C)c4)cc3)C(=O)CC(C)(C)C)nccc2c1` [Compound 19.01, 1-(N-((4′-Methoxy-3′-methyl-[1,1′-biphenyl]-4-yl)methyl)-3,3-dimethylbutanamido)-N-methylisoquinoline-6-carboxamide], the pEC50 is 5.00 to 6.00.
As for `COc1ccc(-c2ccc(CN(C(=O)CC(C)(C)C)c3nccc4cc(N5CC(O)C5)ccc34)cc2)cc1C` [Compound 6.03, N-(6-(3-Hydroxyazetidin-1-yl)isoquinolin-1-yl)-N-((4′-methoxy-3′-methyl-[1,1′-biphenyl]-4-yl)methyl)-3,3-dimethylbutanamide], the figure is at least 6.00; as for `COc1ccc(-c2ccc(CN(C(=O)CC(C)(C)C)c3nccc4cc(OCCCCO)ccc34)cc2)cc1C` [Compound 8.1, N-(6-(4-Hydroxybutoxy)isoquinolin-1-yl)-N-((4′-methoxy-3′-methyl-[1,1′-biphenyl]-4-yl)methyl)-3,3-dimethylbutanamide], at least 6.00; as for `CNC(=O)COc1ccc2c(N(Cc3ccc(-c4ccc(OC)c(C)c4)cc3)C(=O)CC(C)(C)C)nccc2c1` [Compound 8.01, N-((4′-Methoxy-3′-methyl-[1,1′-biphenyl]-4-yl)methyl)-3,3-dimethyl-N-(6-(2-(methylamino)-2-oxoethoxy)isoquinolin-1-yl)butanamide], 5.00 to 6.00.
In turn, `COCCOCc1ccc2c(N(Cc3ccc(-c4ccc(OC)c(C)c4)cc3)C(=O)CC(C)(C)C)nccc2c1` [Compound 9.04, N-((4′-Methoxy-3′-methyl-[1,1′-biphenyl]-4-yl)methyl)-N-(6-((2-methoxyethoxy)methyl)isoquinolin-1-yl)-3,3-dimethylbutanamide] showed a pEC50 of at least 6.00.
As for `COc1ccc(-c2ccc(CN(C(=O)CC(C)(C)C)c3ncnc4ccccc34)cc2)cc1C` [Compound 4.01, N-((4′-Methoxy-3′-methyl-[1,1′-biphenyl]-4-yl)methyl)-3,3-dimethyl-N-(quinazolin-4-yl)butanamide], the figure is 5.00 to 6.00.
As for `COc1ccc(-c2ccc(CN(C(=O)CC(C)(C)C)c3nccc4cc(N5CCCC(O)C5)ccc34)cc2)cc1C` (stereo not shown) [Compound 6.17, N-(6-(3-Hydroxypiperidin-1-yl)isoquinolin-1-yl)-N-((4′-methoxy-3′-methyl-[1,1′-biphenyl]-4-yl)methyl)-3,3-dimethylbutanamide], the figure is at least 6.00; as for `COc1ccc2c(N(C[C@H]3CC[C@H](c4ccc(OC)c(C)c4)CC3)C(=O)CC(C)(C)C)nccc2c1` [Compound 1], at least 6.00.
As for `COc1ccc(-c2ccc(CN(C(=O)CC(C)(C)C)c3nccc4ccsc34)cc2)cc1C` [Compound 4.04, N-((4′-Methoxy-3′-methyl-[1,1′-biphenyl]-4-yl)methyl)-3,3-dimethyl-N-(thieno[2,3-c]pyridine-7-yl)butanamide], the figure is at least 6.00; as for `COc1ccc(-c2ccc(CN(C(=O)CC(C)(C)C)c3ccnc4ccccc34)cc2)cc1C` [Compound 4.08, N-((4′-Methoxy-3′-methyl-[1,1′-biphenyl]-4-yl)methyl)-3,3-dimethyl-N-(quinolin-4-yl)butanamide], under 5.00; as for `COc1ccc(-c2ccc(CN(C(=O)CC(C)(C)C)c3nccc4cc(OC5CCN(C(=O)OC(C)(C)C)CC5)ccc34)cc2)cc1C` [Compound 8.05, tert-Butyl 4-((1-(N-((4′-methoxy-3′-methyl-[1,1′-biphenyl]-4-yl)methyl)-3,3-dimethylbutanamido)isoquinolin-6-yl)oxy)piperidine-1-carboxylate], under 5.00.
As to `COc1ccc(-c2ccc(CN(C(=O)CC(C)(C)C)c3nccc4cc(OCC[S+](C)[O-])ccc34)cc2)cc1C` (stereo not shown) [Compound 33, N-((4′-Methoxy-3′-methyl-[1,1′-biphenyl]-4-yl)methyl)-3,3-dimethyl-N-(6-(2-(methylsulfinyl)ethoxy)isoquinolin-1-yl)butanamide], the pEC50 was at least 6.00.
As for `COc1ccc(-c2ccc(CN(C(=O)CC(C)(C)C)c3nccc4cc(OC(C)CO)ccc34)cc2)cc1C` (stereo not shown) [Compound 31, N-(6-((1-Hydroxypropan-2-yl)oxy)isoquinolin-1-yl)-N-((4′-methoxy-3′-methyl-[1,1′-biphenyl]-4-yl)methyl)-3,3-dimethylbutanamide], the figure is at least 6.00; as for `COc1ccc(-c2ccc(CN(C(=O)CC(C)(C)C)c3nccc4ccccc34)cc2)cc1C` [Compound 20, N-(Isoquinolin-1-yl)-N-((4′-methoxy-3′-methyl-[1,1′-biphenyl]-4-yl)methyl)-3,3-dimethylbutanamide], at least 6.00.
As for `COc1ccc(-c2ccc(CN(C(=O)CC(C)(C)C)c3nccc4cc(N5CCC(O)C5)cnc34)cc2)cc1C` (stereo not shown) [Compound 6.2, N-(3-(3-Hydroxypyrrolidin-1-yl)-1,7-naphthyridin-8-yl)-N-((4′-methoxy-3′-methyl-[1,1′-biphenyl]-4-yl)methyl)-3,3-dimethylbutanamide], the figure is at least 6.00.
